From patent US7838493B2, “Acetylcholinesterase (ACHE)-derived peptide as an inducer of granulocytopoiesis, uses and methods thereof” (priority 2004, dated 2010)

Tested on: human CD34+ hematopoietic stem cells
Test: Ex vivo expansion of CD34+ cells in liquid culture, flow cytometric immunophenotyping
Format: cell-based
Procedure: Mean fluorescence intensity (MFI) served as a measure of AChE-R content in analyzed cells. When multiplied by the percent fractions of AChE-R-positive cells, the MFI values reflected the total content of AChE-R in the analyzed blood cell samples. Myeloid markers of maternal blood cells were analyzed by the following combination of monoclonal antibodies: anti-CD15-FITC (Dako, Glostrup Denmark), anti-CD33-PE (BD Bioscience, Palo Alto, Calif.), anti-CD45-PerCP (BD Bioscience, Palo Alto, Calif.) and anti-CD14-APC (Caltag, Burlingame, Calif.). Corresponding MFI values reflected the amount of receptor on the surface of granulocytes and monocytes. Expanded CD34+ cells were analyzed by 4-color flow cytometry with FITC-conjugated anti-CD15 and PE-conjugated anti-CD33, PerCP-conjugated anti-CD34, and APC-conjugated anti-CD38 (all antibodies purchased from BD Bioscience, Palo Alto, Calif.) using a FACSCalibur with CellQuest software (BD Bioscience, Palo Alto, Calif.). Relevant isotype control antibodies were used to detect non-specific background fluorescence. The total number of expanded cells for each lineage was calculated by multiplying their relative proportions by the number of viable cells in each culture.
PBAN (a negative control insect peptide) [Nijholt (2003) id ibid.] were also used for cell expansion. […] […] At 3-day intervals, cultures were supplemented with the same growth factor(s) and cells were counted by trypan blue exclusion and diluted to maintain cultures at concentrations no higher then 100,000 cells/mL [Pick M. et al. (2002) Exp. Hematol. 30:1079]. Cultured cells were injected into NOD/SCID mice at a concentration of 100,000 or 200,000 together with 100,000 unexpanded CD34+ cells per mouse as indicated.
Peptide controls (ASP40 and PBAN) were used to explore the specificity of this response.

[1] = Table 4b, cortisol (1.2 nM), day 14

C[C@]12CCC(=O)C=C1CC[C@@H]1[C@@H]2[C@@H](O)C[C@@]2(C)[C@H]1CC[C@]2(O)C(=O)CO [Cortisol, cortisol]
total number of cells (CD34+ cells, 2-week incubation, versus control): not | Cell expansion index (Table 4a, cultured CD34+ cells, cortisol 1.2 μM, viable cells/ml at day 14 divided by seeded cells (50,000)): 1.55 ± 0.07 | Cell expansion index (Table 4b, typical CD34+ culture, cortisol (1.2 nM), day 14): 1.6 | CD33+ CD15+ Granulocytes [1]: 28.5 cell counts × 10^3 | CD33+ CD15− Immature myeloids [1]: 13.0 cell counts × 10^3 | CD33− CD15+ Mature granulocytes [1]: 15.4 cell counts × 10^3 | CD34+ CD33+ Committed myeloids [1]: 10.6 cell counts × 10^3 | CD34+ CD38+ Committed progenitors [1]: 11.0 cell counts × 10^3
